Data published in the NIST ThermoML archive (doi:10.1021/je300843n).

Settings: Liquid, Ebulliometric method (Recirculating still)

C [methane]
Settings	vapor or sublimation pressure [kPa]
126.01 K	286.85
127.99 K	324.94
130.02 K	367.76
132.01 K	413.65
133.98 K	463.11
135.99 K	517.9
137.97 K	576.38
140.01 K	641.51
